According to patent publication EP0785936B1, “PHOTOCHROMIC NAPHTHOXAZINE COMPOUNDS” (PPG Industries Ohio, Inc., priority 1994, dated 1996):

Assay: Photochromic response of imbibed diethylene glycol bis(allyl carbonate) polymer test squares on an optical bench
Assay type: physicochemical
Conditions: for Δ OD @ SATURATION: UV exposure continued for 20 minutes; for BLEACH RATE T 1/2: time for absorbance of activated form to reach one half the highest absorbance at 25.7 ± 0.5 °C after removal of activating light
Description: Comparative testing was conducted on the principle product of Example 3 and certain photochromic compounds described in U.S. Patents 4,342,668 and 4,637,698. These compounds were imbibed by thermal transfer into test squares of a polymeric matrix prepared from a diethylene glycol bis(allyl carbonate) composition by the following procedure: Each photochromic compound was dissolved in toluene to form a 4 weight percent solution of the compound. A piece of No. 4 Whatman filter paper was saturated with the toluene solution of the photochromic compound and allowed to air dry. The dried filter paper was placed on one side of the polymer test square, which measured 1/8 inch (0.3 centimeter) x 2 inch (5.1 centimeters) x 2 inch (5.1 centimeters). A piece of untreated filter paper was placed on the other side of the polymer test square and the resulting sandwich placed between two plates of flat aluminum metal plates. The entire assembly was then placed in a 155°C. oven for a time sufficient to thermally transfer the photochromic compound into the polymer test square. […] The imbibed test squares were washed with acetone after removal from the oven.
The imbibed polymer test squares were tested for photochromic response rates on an optical bench. The samples were illuminated by a 150 watt Xenon lamp fitted with a copper sulfate bath and a neutral density filter at an intensity of about one sun. A second beam of light provided by a filtered tungsten lamp arranged to pass through the sample area exposed by the UV source was used to monitor changes in transmission of the sample over different wavelength ranges in the visible region of the spectrum. The intensity of the monitoring beam after passing through the sample was measured by means of an IL-1500 radiometer equipped with a silicon detector head and matching filters.
The Δ OD/min., which represents the sensitivity of the photochromic compound's response to UV light, was measured using photopic filters on the silicon detector. The response of the filtered detector approximated the luminosity curve. The Δ OD was measured over the first five (5) seconds of UV exposure, then expressed on a per minute basis. The saturation optical density (OD) was taken under identical conditions as the Δ OD/min., except UV exposure was continued for 20 minutes. The lambda max reported in Table 2 is the wavelength in the ultraviolet range closest to the visible spectrum or in the threshold range, i.e., 390 to 410 nanometers, of the visible spectrum at which the maximum absorption and activation of the photochromic compound occurs in the polymer matrix test squares.
The bleach rate T 1/2(sec.) is the time interval in seconds for the absorbance of the activated form of the photochromic compounds in the test polymer to reach one half the highest absorbance at 25.7 ± 0.5 °C. after removal of the source of activating light.

Molecule | Δ OD @ SATURATION | BLEACH RATE T 1/2 [min]
1-propyl-3,3,4,5(or 3,3,5,6)-tetramethyl-spiro[indoline-2,3'-[3H]naphth[2,1-b][1,4]oxazine] | 0.11 | 0.783
CCCN1c2cc(C)c(C)cc2C(C)(C)C12C=Nc1c(ccc3ccc(OC)cc13)O2 (centres unmarked) [A, 1-propyl-3,3,5,6-tetramethyl-9'-methoxy-spiro[indoline-2,3'-[3H]naphth[2,1-b][1,4]oxazine]] | 0.11 | 1.17
CCCN1c2cc(C)c(C)cc2C(C)(C)C12C=Nc1c(ccc3ncccc13)O2 (centres unmarked) [B, 1-propyl-3,3,5,6-tetramethyl-spiro[indoline-2,3'-[3H]pyrido-[3,2-f][1,4]benzoxazine]] | 0.36 | 1.15
1-propyl-3,3,4,5(or 3,3,5,6)-tetramethyl-9'-methoxycarbonyl-8'-acetoxy-spiro[indoline-2,3'-[3H]naphth[2,1-b]-[1,4]oxazine] | 0.42 | 2.27
